Converted amounts (≈) assume the structure as drawn. Read-outs that look alike come from different tables or passages of the source.
Assays:
P. aeruginosa ATCC 27853 = experiment: microbe, parasite or virus in culture; format: cell-based; settings: Pseudomonas aeruginosa, ATCC27853, read-out: Minimum inhibitory concentration, P. aeruginosa ATCC 27853
[1] = tested on: B. thailandensis ATCC 700388; experiment: microbe, parasite or virus in culture; format: cell-based; settings: Burkholderia thailandensis, ATCC700388, read-out: Minimum inhibitory concentration (MIC), B. thailandensis ATCC 700388
P. aeruginosa CDC-0090 = experiment: microbe, parasite or virus in culture; format: cell-based; settings: Pseudomonas aeruginosa, CDC0090, read-out: Minimum inhibitory concentration, P. aeruginosa CDC-0090
A. baumannii ATCC 17978 = experiment: microbe, parasite or virus in culture; format: cell-based; settings: Acinetobacter baumannii, ATCC17978, read-out: MIC, A. baumannii ATCC 17978
A. baumannii PBP1a = molecular target: T1, A. baumannii PBP1a (Acinetobacter baumannii, UniProt A0ABX6CK30); experiment: Bocillin-FL competition binding via gel filtration, A. baumannii PBP1a
T1 sequence (A0ABX6CK30 1-851): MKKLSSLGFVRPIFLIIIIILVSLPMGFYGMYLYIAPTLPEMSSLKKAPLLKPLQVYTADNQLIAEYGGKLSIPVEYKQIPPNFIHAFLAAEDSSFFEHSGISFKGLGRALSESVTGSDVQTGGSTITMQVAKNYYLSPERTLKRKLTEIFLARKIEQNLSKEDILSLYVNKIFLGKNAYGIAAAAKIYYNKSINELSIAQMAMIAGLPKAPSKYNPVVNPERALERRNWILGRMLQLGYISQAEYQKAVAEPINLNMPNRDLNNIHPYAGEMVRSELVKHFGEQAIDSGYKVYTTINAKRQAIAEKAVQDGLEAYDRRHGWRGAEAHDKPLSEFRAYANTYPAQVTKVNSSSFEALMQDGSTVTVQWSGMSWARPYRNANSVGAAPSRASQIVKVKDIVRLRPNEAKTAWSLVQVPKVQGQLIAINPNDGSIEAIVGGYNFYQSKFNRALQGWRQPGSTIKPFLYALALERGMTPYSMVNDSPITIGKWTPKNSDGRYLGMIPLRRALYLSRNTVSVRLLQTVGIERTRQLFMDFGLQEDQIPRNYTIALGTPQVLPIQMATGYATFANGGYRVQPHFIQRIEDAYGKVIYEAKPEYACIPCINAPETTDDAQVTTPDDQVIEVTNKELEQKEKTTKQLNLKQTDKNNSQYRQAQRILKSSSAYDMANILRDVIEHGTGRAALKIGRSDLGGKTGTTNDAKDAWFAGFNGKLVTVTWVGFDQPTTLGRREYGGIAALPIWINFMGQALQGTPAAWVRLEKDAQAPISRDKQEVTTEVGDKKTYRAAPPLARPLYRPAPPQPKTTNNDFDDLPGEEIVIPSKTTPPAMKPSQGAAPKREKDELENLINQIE
Summary of the method: (§1)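 Competitive equilibrium binding with Bocillin-FL reporter: PBP pre-incubated with inhibitor dilutions, Bocillin-FL added, 15 min incubation. Labelled enzyme isolated by size-exclusion spin plates, fluorescence measured; EC50 obtained by fitting bound fraction against inhibitor concentration with a Hill-coefficient model.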

A. baumannii ATCC 19606 = experiment: microbe, parasite or virus in culture; format: cell-based; settings: Acinetobacter baumannii, ATCC19606, read-out: MIC, A. baumannii ATCC 19606
A. baumannii CDC-0045 = experiment: microbe, parasite or virus in culture; format: cell-based; settings: Acinetobacter baumannii, CDC0045, read-out: MIC, A. baumannii CDC-0045
P. aeruginosa CDC-0054 = experiment: microbe, parasite or virus in culture; format: cell-based; settings: Pseudomonas aeruginosa, CDC0054, read-out: Minimum inhibitory concentration, P. aeruginosa CDC-0054
[2] = tested on: B. humptydooensis ATCC BAA-2767; experiment: microbe, parasite or virus in culture; format: cell-based; settings: Burkholderia humptydooensis, ATCCBAA2767, read-out: Minimum inhibitory concentration (MIC), B. humptydooensis ATCC BAA-2767
A. baumannii PBP2 = A. baumannii PBP2 (Acinetobacter baumannii, UniProt D0C8Z9); experiment: Bocillin-FL competition binding via gel filtration, A. baumannii PBP2
Sequence of A. baumannii PBP2 (D0C8Z9 whole entry): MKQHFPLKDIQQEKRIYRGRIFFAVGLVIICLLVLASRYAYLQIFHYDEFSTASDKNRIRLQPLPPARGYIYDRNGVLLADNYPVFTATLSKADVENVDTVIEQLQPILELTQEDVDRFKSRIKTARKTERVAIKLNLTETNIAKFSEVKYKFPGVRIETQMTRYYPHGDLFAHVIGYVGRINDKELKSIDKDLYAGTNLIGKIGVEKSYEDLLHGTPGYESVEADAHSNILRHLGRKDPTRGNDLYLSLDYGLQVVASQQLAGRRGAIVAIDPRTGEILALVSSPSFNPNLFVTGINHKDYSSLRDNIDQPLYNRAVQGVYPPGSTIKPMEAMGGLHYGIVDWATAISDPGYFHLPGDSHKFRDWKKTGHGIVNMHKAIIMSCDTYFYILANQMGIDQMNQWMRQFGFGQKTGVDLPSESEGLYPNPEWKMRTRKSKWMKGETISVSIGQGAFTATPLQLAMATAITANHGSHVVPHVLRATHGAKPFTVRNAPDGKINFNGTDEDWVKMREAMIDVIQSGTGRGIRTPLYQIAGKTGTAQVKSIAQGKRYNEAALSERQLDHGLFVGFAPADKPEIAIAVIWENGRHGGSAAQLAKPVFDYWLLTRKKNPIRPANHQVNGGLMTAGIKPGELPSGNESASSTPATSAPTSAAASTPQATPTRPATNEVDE
Summary of the method: as §1

[3] = competition binding assay using Bocillin-FL via gel filtration, read-out: A. baumannii PBP1a Potency

| Structure (SMILES) | MIC (P. aeruginosa ATCC 27853) | MIC [1] | MIC (P. aeruginosa CDC-0090) | MIC (A. baumannii ATCC 17978) | EC50 (A. baumannii PBP1a; [3]) | MIC (A. baumannii ATCC 19606) | MIC (A. baumannii CDC-0045) | MIC (P. aeruginosa CDC-0054) | MIC [2] | EC50 (A. baumannii PBP2) | EC50 (A. baumannii PBP1a) |
| --- | --- | --- | --- | --- | --- | --- | --- | --- | --- | --- | --- |
| O=C(O)c1c(F)ccc2c1OB(O)[C@@H](NC(=O)[C@H](NC(=O)N1CCN(Cc3ccc(O)c(O)c3Cl)C(=O)C1=O)c1ccc(P(=O)(O)O)c(F)c1F)C2 [Example 166, (R)-3-((R)-2-(4-(2-chloro-3,4-dihydroxybenzyl)-2,3-dioxopiperazine-1-carboxamido)-2-(2,3-difluoro-4-phosphonophenyl)acetamido)-7-fluoro-2-hydroxy-3,4-dihydro-2H-benzo[e][1,2]oxaborinine-8-carboxylic acid] | < 1 µg/mL | < 1 µg/mL | 2 to 4 µg/mL (≈ 2.59 to 5.19 µM) | < 1 µg/mL | 10 to 50 µM | < 1 µg/mL | < 1 µg/mL | < 1 µg/mL | < 1 µg/mL | 10 to 50 µM |  |
| O=C(NCCS(=O)(=O)N1CCN(C(=O)N[C@H](C(=O)N[C@H]2Cc3ccc(F)c(C(=O)O)c3OB2O)c2ccc(P(=O)(O)O)cc2)C1=O)c1ccc(O)c(O)c1Cl [Example 167, (R)-3-((S)-2-(3-((2-(2-chloro-3,4-dihydroxybenzamido)ethyl)sulfonyl)-2-oxoimidazolidine-1-carboxamido)-2-(4-phosphonophenyl)acetamido)-7-fluoro-2-hydroxy-3,4-dihydro-2H-benzo[e][1,2]oxaborinine-8-carboxylic acid] | > 128 µg/mL | > 128 µg/mL | > 128 µg/mL | 32 to 64 µg/mL (≈ 38.7 to 77.3 µM) | 50 to 250 µM | > 128 µg/mL | > 128 µg/mL | > 128 µg/mL | > 128 µg/mL | 10 to 50 µM |  |
| O=C(O)c1c(F)ccc2c1OB(O)[C@@H](NC(=O)[C@H](NC(=O)N1CCN(C3CCN(C(=O)c4ccc(F)c(O)c4Cl)CC3)C1=O)c1cc(F)c(O)c(O)c1Cl)C2 [Example 438, (R)-3-((R)-2-(3-(1-(2-chloro-4-fluoro-3-hydroxybenzoyl)piperidin-4-yl)-2-oxoimidazolidine-1-carboxamido)-2-(2-chloro-5-fluoro-3,4-dihydroxyphenyl)acetamido)-7-fluoro-2-hydroxy-3,4-dihydro-2H-benzo[e][1,2]oxaborinine-8-carboxylic acid] | < 1 µg/mL | < 1 µg/mL | 2 to 4 µg/mL (≈ 2.47 to 4.94 µM) | < 1 µg/mL | < 10 µM | < 1 µg/mL | < 1 µg/mL | < 1 µg/mL | < 1 µg/mL | < 10 µM |  |
| O=C(O)c1c(F)ccc2c1OB(O)[C@@H](NC(=O)[C@H](NC(=O)N1CCN(C3CCN(C(=O)Nc4cccc(O)c4)CC3)C1=O)c1cc(F)c(O)c(O)c1Cl)C2 [Example 445, (R)-3-((R)-2-(2-chloro-5-fluoro-3,4-dihydroxyphenyl)-2-(3-(1-((3-hydroxyphenyl)carbamoyl)piperidin-4-yl)-2-oxoimidazolidine-1-carboxamido)acetamido)-7-fluoro-2-hydroxy-3,4-dihydro-2H-benzo[e][1,2]oxaborinine-8-carboxylic acid] | < 1 µg/mL | < 1 µg/mL | < 1 µg/mL | < 1 µg/mL | < 10 µM | < 1 µg/mL | < 1 µg/mL | < 1 µg/mL | < 1 µg/mL | < 10 µM |  |
| O=C(O)c1c(F)ccc2c1OB(O)[C@@H](NC(=O)[C@H](NC(=O)N1CCN(C3CCN(C(=O)Nc4cccc(O)c4Cl)CC3)C1=O)c1cc(F)c(O)c(O)c1Cl)C2 [Example 447, (R)-3-((R)-2-(3-(1-((2-chloro-3-hydroxyphenyl)carbamoyl)piperidin-4-yl)-2-oxoimidazolidine-1-carboxamido)-2-(2-chloro-5-fluoro-3,4-dihydroxyphenyl)acetamido)-7-fluoro-2-hydroxy-3,4-dihydro-2H-benzo[e][1,2]oxaborinine-8-carboxylic acid] | < 1 µg/mL | < 1 µg/mL | < 1 µg/mL | < 1 µg/mL | < 10 µM | < 1 µg/mL | < 1 µg/mL | < 1 µg/mL | < 1 µg/mL | < 10 µM |  |
| O=C(O)c1c(F)ccc2c1OB(O)[C@@H](NC(=O)[C@H](NC(=O)N1CCN(C3CCN(C(=O)Nc4cc(O)cc(O)c4)CC3)C1=O)c1cc(F)c(O)c(O)c1Cl)C2 [Example 456, (R)-3-((R)-2-(2-chloro-5-fluoro-3,4-dihydroxyphenyl)-2-(3-(1-((3,5-dihydroxyphenyl)carbamoyl)piperidin-4-yl)-2-oxoimidazolidine-1-carboxamido)acetamido)-7-fluoro-2-hydroxy-3,4-dihydro-2H-benzo[e][1,2]oxaborinine-8-carboxylic acid] | < 1 µg/mL | < 1 µg/mL | < 1 µg/mL | < 1 µg/mL | < 10 µM | < 1 µg/mL | < 1 µg/mL | < 1 µg/mL | < 1 µg/mL | < 10 µM |  |
| O=C(O)c1c(F)ccc2c1OB(O)[C@@H](NC(=O)[C@H](NC(=O)N1CCN(C3CCN(C(=O)c4cccnc4)CC3)C1=O)c1cc(F)c(O)c(O)c1Cl)C2 [Example 460, (R)-3-((R)-2-(2-chloro-5-fluoro-3,4-dihydroxyphenyl)-2-(3-(1-nicotinoylpiperidin-4-yl)-2-oxoimidazolidine-1-carboxamido)acetamido)-7-fluoro-2-hydroxy-3,4-dihydro-2H-benzo[e][1,2]oxaborinine-8-carboxylic acid] | < 1 µg/mL | < 1 µg/mL | < 1 µg/mL | < 1 µg/mL |  | < 1 µg/mL | < 1 µg/mL | < 1 µg/mL | < 1 µg/mL | 10 to 50 µM | 10 to 50 µM |
| O=C(O)c1c(F)ccc2c1OB(O)[C@@H](NC(=O)[C@H](NC(=O)N1CCN(C3CCN(C(=O)c4ccncc4)CC3)C1=O)c1cc(F)c(O)c(O)c1Cl)C2 [Example 461, (R)-3-((R)-2-(2-chloro-5-fluoro-3,4-dihydroxyphenyl)-2-(3-(1-isonicotinoylpiperidin-4-yl)-2-oxoimidazolidine-1-carboxamido)acetamido)-7-fluoro-2-hydroxy-3,4-dihydro-2H-benzo[e][1,2]oxaborinine-8-carboxylic acid] | < 1 µg/mL | < 1 µg/mL | < 1 µg/mL | < 1 µg/mL | 10 to 50 µM | < 1 µg/mL | < 1 µg/mL | < 1 µg/mL | < 1 µg/mL | 10 to 50 µM |  |
| O=C(O)c1c(F)ccc2c1OB(O)[C@@H](NC(=O)C(NC(=O)N1CCN(C3CCN(C(=O)Nc4cc(O)ccc4F)CC3)C(=O)C1=O)c1cc(F)c(O)c(O)c1Cl)C2 (stereo partly drawn) [Example 479, (3R)-3-(2-(2-chloro-5-fluoro-3,4-dihydroxyphenyl)-2-(4-(1-((2-fluoro-5-hydroxyphenyl)carbamoyl)piperidin-4-yl)-2,3-dioxopiperazine-1-carboxamido)acetamido)-7-fluoro-2-hydroxy-3,4-dihydro-2H-benzo[e][1,2]oxaborinine-8-carboxylic acid] | 2 to 4 µg/mL (≈ 2.44 to 4.88 µM) | < 1 µg/mL | 2 to 4 µg/mL (≈ 2.44 to 4.88 µM) | < 1 µg/mL | 10 to 50 µM | < 1 µg/mL | < 1 µg/mL | < 1 µg/mL | 2 to 4 µg/mL (≈ 2.44 to 4.88 µM) | 10 to 50 µM |  |
